Results taken from PubChem BioAssay AID1963849 (Molecular Pharmacology Branch, DTP, NCI, 2024).
pIC50: −log10 of the molar value.

System: 299254-011-R-J1-PDC complex spheroid viability
Assay: Anticancer human tumor 299254-011-R-J1-PDC patient-derived melanoma cell line growth inhibition [POLQ]
Details: for pIC50: curve of first compound; for viability, T/C: stronger effect = lower value; active means viability on the fitted dose curve at most 10% of control; inactive means the rest
How it was run: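 Patient-derived tumour cells were co-cultured with HUVEC and mesenchymal stem cells as multicellular spheroids at 37 °C. They were treated with POLQ inhibitors (novobiocin, ART-558, RP6685) alone or combined with other agents. Top concentrations were at or near clinical Cmax (otherwise 10 microM; SN-38 at 1 microM), decreasing in half-log steps.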

[1] = second compound 0.0316 µM, first compound 0.0316 µM
[2] = second compound 0.0316 µM, first compound 0.1 µM
[3] = second compound 0.0316 µM, first compound 0.316 µM
[4] = second compound 0.0316 µM, first compound 1 µM
[5] = second compound 0.0316 µM, first compound 3.16 µM
[6] = second compound 0.0316 µM, first compound 10 µM
[7] = second compound 0.1 µM, first compound 0.0316 µM
[8] = second compound 0.1 µM, first compound 0.1 µM
[9] = second compound 0.1 µM, first compound 0.316 µM
[10] = second compound 0.1 µM, first compound 1 µM
[11] = second compound 0.1 µM, first compound 3.16 µM
[12] = second compound 0.1 µM, first compound 10 µM
[13] = second compound 0.316 µM, first compound 0.0316 µM
[14] = second compound 0.316 µM, first compound 0.1 µM
[15] = second compound 0.316 µM, first compound 0.316 µM
[16] = second compound 0.316 µM, first compound 1 µM
[17] = second compound 0.316 µM, first compound 3.16 µM
[18] = second compound 0.316 µM, first compound 10 µM
[19] = second compound 1 µM, first compound 0.0316 µM
[20] = second compound 1 µM, first compound 0.1 µM
[21] = second compound 1 µM, first compound 0.316 µM
[22] = second compound 1 µM, first compound 1 µM
[23] = second compound 1 µM, first compound 3.16 µM
[24] = second compound 1 µM, first compound 10 µM
[25] = second compound 3.16 µM, first compound 0.0316 µM
[26] = second compound 3.16 µM, first compound 0.1 µM
[27] = second compound 3.16 µM, first compound 0.316 µM
[28] = second compound 3.16 µM, first compound 1 µM
[29] = second compound 3.16 µM, first compound 3.16 µM
[30] = second compound 3.16 µM, first compound 10 µM
[31] = second compound 10 µM, first compound 0.0316 µM
[32] = second compound 10 µM, first compound 0.1 µM
[33] = second compound 10 µM, first compound 0.316 µM
[34] = second compound 10 µM, first compound 1 µM
[35] = second compound 10 µM, first compound 3.16 µM
[36] = second compound 10 µM, first compound 10 µM
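Further: spheroids exposed to drugs for one week before measurement.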
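Wherever viability, T/C is given: percent viability relative to DMSO vehicle control taken as 100%.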

O=C(Nc1ccc(O)c(NS(=O)(=O)c2ccc(F)cc2)c1)c1ccc(-c2ccccc2)cc1 + Cc1cccc(N(C)C(=O)C2C(O)CCN2c2nc(C)cc(C(F)(F)F)c2C#N)c1
5.06: pIC50 (second compound 10 µM)
5.01: pIC50 (second compound 3.16 µM)
< 5.00: pIC50 (second compound 0.0316 µM) | pIC50 (second compound 0.316 µM) | pIC50 (second compound 1 µM)
5.02: pIC50 (second compound 0.1 µM)
inactive: viability, T/C [1] 102% | viability, T/C [2] 99.2% | viability, T/C [3] 92.7% | viability, T/C [4] 104% | viability, T/C [5] 99.3% | viability, T/C [6] 54.8% | viability, T/C [7] 105% | viability, T/C [8] 107% | viability, T/C [9] 98% | viability, T/C [10] 107% | viability, T/C [11] 96.3% | viability, T/C [12] 47.3% | viability, T/C [13] 102% | viability, T/C [14] 115% | viability, T/C [15] 98.2% | viability, T/C [16] 123% | viability, T/C [17] 93.7% | viability, T/C [18] 56.2% | viability, T/C [19] 106% | viability, T/C [20] 111% | viability, T/C [21] 109% | viability, T/C [22] 104% | viability, T/C [23] 90.7% | viability, T/C [24] 53% | viability, T/C [25] 108% | viability, T/C [26] 103% | viability, T/C [27] 101% | viability, T/C [28] 94.8% | viability, T/C [29] 100% | viability, T/C [30] 48.9% | viability, T/C [31] 98.7% | viability, T/C [32] 98% | viability, T/C [33] 93.6% | viability, T/C [34] 110% | viability, T/C [35] 83.4% | viability, T/C [36] 45.2%

COc1cccc2c1C(=O)c1c(O)c3c(c(O)c1C2=O)CC(O)(C(=O)CO)CC3OC1CC(N)C(O)C(C)O1 (centres undefined) + Nc1ccc(C#CCN(C(=O)Cc2ncc(C(F)(F)F)cc2C(F)(F)F)c2ccc(F)cc2)nn1
6.12: pIC50 (second compound 3.16 µM)
6.03: pIC50 (second compound 0.1 µM)
6.08: pIC50 (second compound 1 µM)
5.99: pIC50 (second compound 0.316 µM)
5.97: pIC50 (second compound 0.0316 µM)
inactive: viability, T/C [1] 120% | viability, T/C [2] 85.1% | viability, T/C [3] 83.1% | viability, T/C [4] 56.5% | viability, T/C [5] 17.8% | viability, T/C [7] 89.8% | viability, T/C [8] 94.6% | viability, T/C [9] 63.5% | viability, T/C [10] 54.5% | viability, T/C [11] 17.9% | viability, T/C [13] 93.1% | viability, T/C [14] 75.2% | viability, T/C [15] 65.9% | viability, T/C [16] 61.2% | viability, T/C [17] 16% | viability, T/C [19] 86.6% | viability, T/C [20] 72.2% | viability, T/C [21] 87.2% | viability, T/C [22] 43.9% | viability, T/C [25] 94.9% | viability, T/C [26] 85.7% | viability, T/C [27] 77.1% | viability, T/C [28] 42.7% | viability, T/C [31] 77.7% | viability, T/C [32] 85.9% | viability, T/C [33] 65.3% | viability, T/C [34] 30.5%
6.27: pIC50 (second compound 10 µM)
active: viability, T/C [6] 1.11% | viability, T/C [12] 1.22% | viability, T/C [18] 2.99% | viability, T/C [23] 9.65% | viability, T/C [24] 0.5% | viability, T/C [29] 0.52% | viability, T/C [30] 2.06% | viability, T/C [35] 0.39% | viability, T/C [36] 2.85%
